# Measured values published in patent publication US20140357713A1, “ANTIMICROBIAL COMPOUNDS AND METHODS OF USE” (NexMed Holdings, Inc., priority 2012, published 2014).
# Legend:
# Type in all cases: cell-based
# Escherichia coli = test: Extended time kill study, Example 34 (0 to 24 h)
# Procedure: (§1) Time kill studies. Strain suspensions were prepared as described above for the MIC test, and strain suspensions and compound solutions were mixed in the same volume. Samples were removed at specified times including 0 min, 30 sec, 1 min and 5 mins, were diluted in the test medium and streaked on agar. Colonies were counted after 24 to 48 hrs of incubation.
# (§2) The time kill studies of Example 33 were extended for five compounds (Nex-59, Nex-60, Nex-61, Nex-62, and Nex-88) using the same methods at longer time periods and at higher multiples of MIC. Nex-88 is a code number for DDAIP.HCl from a different supplier.
# Staphylococcus aureus = test: Extended time kill study, Example 34 (0 to 24 h)
# Procedure: as §1, §2
# Pseudomonas aeruginosa = test: Extended time kill study, Example 34 (0 to 24 h)
# Procedure: as §1, §2
# Candida albicans = test: Extended time kill study, Example 34 (0 to 24 h)
# Procedure: as §1, §2
# Aspergillus niger = test: Extended time kill study, Example 34 (0 to 24 h)
# Procedure: as §1, §2
# [1] = system: Aspergillus niger (CMCC 98003); test: Time kill study, Example 33 (0 to 5 min); conditions: 1×MIC
# Procedure: Thirty compounds were tested for antimicrobial activity using standard procedures and standard strains for both the minimum inhibitory concentration (MIC) assay and a time kill study. Both the MIC assay and the time kill study were performed according to Clinical and Laboratory Standards Institute (CLSI) guidelines. Three bacteria strains, Escherichia coli (ATCC 25922), Pseudomonas aeruginosa (ATCC 27853), Staphulococcus aureus (ATCC 29213), and two fungus strains, Candida albicans (ATCC 90029) and Aspergillus niger (CMCC 98003), were used in the experiments.
# The viable counts in Log10 CFU/mL at each time point were recorded.
# as §1
# The MIC values for thirty compounds against Escherichia coli, Pseudomonas aeruginosa, Staphulococcus aureus, Candida albicans, and Aspergillus niger were recorded and are presented in Table 3 and Table 4.
structure (smiles),measurement,setting,value
"CCCCCCCCCCCCOC(=O)C(C)NC.Cl (stereo not shown) [Nex-59, Dodecyl 2-(methylamino)propanoate hydrochloride]","Viable counts, Escherichia coli time kill study","Escherichia coli; 1 × MIC, 1 h",1 Log10 CFU/mL
same,"Viable counts, Escherichia coli time kill study","Escherichia coli; 1 × MIC, 2 h",<1 Log10 CFU/mL
same,"Viable counts, Escherichia coli time kill study","Escherichia coli; 1 × MIC, 4 h",1.85 Log10 CFU/mL
same,"Viable counts, Escherichia coli time kill study","Escherichia coli; 1 × MIC, 6 h",2.81 Log10 CFU/mL
same,"Viable counts, Escherichia coli time kill study","Escherichia coli; 1 × MIC, 24 h",7.91 Log10 CFU/mL
same,"Viable counts, Escherichia coli time kill study","Escherichia coli; 1×MIC, time 0",5 Log10 CFU/mL
same,"Viable counts, Escherichia coli time kill study","Escherichia coli; 2 × MIC, 1 h",<1 Log10 CFU/mL
same,"Viable counts, Escherichia coli time kill study","Escherichia coli; 2 × MIC, 2 h",<1 Log10 CFU/mL
same,"Viable counts, Escherichia coli time kill study","Escherichia coli; 2 × MIC, 4 h",<1 Log10 CFU/mL
same,"Viable counts, Escherichia coli time kill study","Escherichia coli; 2 × MIC, 6 h",<1 Log10 CFU/mL
same,"Viable counts, Escherichia coli time kill study","Escherichia coli; 2 × MIC, 24 h",<1 Log10 CFU/mL
same,"Viable counts, Escherichia coli time kill study","Escherichia coli; 2 × MIC, time 0",5.12 Log10 CFU/mL
same,"Viable counts, Escherichia coli time kill study","Escherichia coli; 4 × MIC, 1 h",<1 Log10 CFU/mL
same,"Viable counts, Escherichia coli time kill study","Escherichia coli; 4 × MIC, 2 h",<1 Log10 CFU/mL
same,"Viable counts, Escherichia coli time kill study","Escherichia coli; 4 × MIC, 4 h",<1 Log10 CFU/mL
same,"Viable counts, Escherichia coli time kill study","Escherichia coli; 4 × MIC, 6 h",<1 Log10 CFU/mL
same,"Viable counts, Escherichia coli time kill study","Escherichia coli; 4 × MIC, 24 h",<1 Log10 CFU/mL
same,"Viable counts, Escherichia coli time kill study","Escherichia coli; 4 × MIC, time 0",5.04 Log10 CFU/mL
same,"Viable counts, Staphylococcus aureus time kill study","Staphylococcus aureus; 1 × MIC, 1 h",<3 Log10 CFU/mL
same,"Viable counts, Staphylococcus aureus time kill study","Staphylococcus aureus; 1 × MIC, 2 h",<3 Log10 CFU/mL
same,"Viable counts, Staphylococcus aureus time kill study","Staphylococcus aureus; 1 × MIC, 4 h",<3 Log10 CFU/mL
same,"Viable counts, Staphylococcus aureus time kill study","Staphylococcus aureus; 1 × MIC, 6 h",<3 Log10 CFU/mL
same,"Viable counts, Staphylococcus aureus time kill study","Staphylococcus aureus; 1 × MIC, 24 h",<1 Log10 CFU/mL
same,"Viable counts, Staphylococcus aureus time kill study","Staphylococcus aureus; 1×MIC, time 0",6.20 Log10 CFU/mL
same,"Viable counts, Staphylococcus aureus time kill study","Staphylococcus aureus; 2 × MIC, 1 h",<3 Log10 CFU/mL
same,"Viable counts, Staphylococcus aureus time kill study","Staphylococcus aureus; 2 × MIC, 2 h",<3 Log10 CFU/mL
same,"Viable counts, Staphylococcus aureus time kill study","Staphylococcus aureus; 2 × MIC, 4 h",<3 Log10 CFU/mL
same,"Viable counts, Staphylococcus aureus time kill study","Staphylococcus aureus; 2 × MIC, 6 h",<3 Log10 CFU/mL
same,"Viable counts, Staphylococcus aureus time kill study","Staphylococcus aureus; 2 × MIC, 24 h",<1 Log10 CFU/mL
same,"Viable counts, Staphylococcus aureus time kill study","Staphylococcus aureus; 2 × MIC, time 0",6.19 Log10 CFU/mL
same,"Viable counts, Staphylococcus aureus time kill study","Staphylococcus aureus; 4 × MIC, 1 h",<3 Log10 CFU/mL
same,"Viable counts, Staphylococcus aureus time kill study","Staphylococcus aureus; 4 × MIC, 2 h",<3 Log10 CFU/mL
same,"Viable counts, Staphylococcus aureus time kill study","Staphylococcus aureus; 4 × MIC, 4 h",<3 Log10 CFU/mL
same,"Viable counts, Staphylococcus aureus time kill study","Staphylococcus aureus; 4 × MIC, 6 h",<3 Log10 CFU/mL
same,"Viable counts, Staphylococcus aureus time kill study","Staphylococcus aureus; 4 × MIC, 24 h",<1 Log10 CFU/mL
same,"Viable counts, Staphylococcus aureus time kill study","Staphylococcus aureus; 4 × MIC, time 0",6.18 Log10 CFU/mL
same,"Viable counts, Pseudomonas aeruginosa time kill study","Pseudomonas aeruginosa; 1 × MIC, 1 h",<1 Log10 CFU/mL
same,"Viable counts, Pseudomonas aeruginosa time kill study","Pseudomonas aeruginosa; 1 × MIC, 2 h",<1 Log10 CFU/mL
same,"Viable counts, Pseudomonas aeruginosa time kill study","Pseudomonas aeruginosa; 1 × MIC, 4 h",<1 Log10 CFU/mL
same,"Viable counts, Pseudomonas aeruginosa time kill study","Pseudomonas aeruginosa; 1 × MIC, 6 h",<1 Log10 CFU/mL
same,"Viable counts, Pseudomonas aeruginosa time kill study","Pseudomonas aeruginosa; 1 × MIC, 24 h",<1 Log10 CFU/mL
same,"Viable counts, Pseudomonas aeruginosa time kill study","Pseudomonas aeruginosa; 1×MIC, time 0",5.18 Log10 CFU/mL
same,"Viable counts, Pseudomonas aeruginosa time kill study","Pseudomonas aeruginosa; 2 × MIC, 1 h",<1 Log10 CFU/mL
same,"Viable counts, Pseudomonas aeruginosa time kill study","Pseudomonas aeruginosa; 2 × MIC, 2 h",<1 Log10 CFU/mL
same,"Viable counts, Pseudomonas aeruginosa time kill study","Pseudomonas aeruginosa; 2 × MIC, 4 h",<1 Log10 CFU/mL
same,"Viable counts, Pseudomonas aeruginosa time kill study","Pseudomonas aeruginosa; 2 × MIC, 6 h",<1 Log10 CFU/mL
same,"Viable counts, Pseudomonas aeruginosa time kill study","Pseudomonas aeruginosa; 2 × MIC, 24 h",<1 Log10 CFU/mL
same,"Viable counts, Pseudomonas aeruginosa time kill study","Pseudomonas aeruginosa; 2 × MIC, time 0",5.16 Log10 CFU/mL
same,"Viable counts, Pseudomonas aeruginosa time kill study","Pseudomonas aeruginosa; 4 × MIC, 1 h",<1 Log10 CFU/mL
same,"Viable counts, Pseudomonas aeruginosa time kill study","Pseudomonas aeruginosa; 4 × MIC, 2 h",<1 Log10 CFU/mL
same,"Viable counts, Pseudomonas aeruginosa time kill study","Pseudomonas aeruginosa; 4 × MIC, 4 h",<1 Log10 CFU/mL
same,"Viable counts, Pseudomonas aeruginosa time kill study","Pseudomonas aeruginosa; 4 × MIC, 6 h",<1 Log10 CFU/mL
same,"Viable counts, Pseudomonas aeruginosa time kill study","Pseudomonas aeruginosa; 4 × MIC, 24 h",<1 Log10 CFU/mL
same,"Viable counts, Pseudomonas aeruginosa time kill study","Pseudomonas aeruginosa; 4 × MIC, time 0",5.21 Log10 CFU/mL
same,Viable counts in Log10 CFU/mL,"Candida albicans; 1 × MIC, 1 h",5.41 Log10 CFU/mL
same,Viable counts in Log10 CFU/mL,"Candida albicans; 1 × MIC, 2 h",5.24 Log10 CFU/mL
same,Viable counts in Log10 CFU/mL,"Candida albicans; 1 × MIC, 4 h",4.96 Log10 CFU/mL
same,Viable counts in Log10 CFU/mL,"Candida albicans; 1 × MIC, 6 h",4.40 Log10 CFU/mL
same,Viable counts in Log10 CFU/mL,"Candida albicans; 1 × MIC, 24 h",>6 Log10 CFU/mL
same,Viable counts in Log10 CFU/mL,"Candida albicans; 1 × MIC, 0 h",5.68 Log10 CFU/mL
same,Viable counts in Log10 CFU/mL,"Candida albicans; 2 × MIC, 1 h",3.48 Log10 CFU/mL
same,Viable counts in Log10 CFU/mL,"Candida albicans; 2 × MIC, 2 h",3.00 Log10 CFU/mL
same,Viable counts in Log10 CFU/mL,"Candida albicans; 2 × MIC, 4 h",3.00 Log10 CFU/mL
same,Viable counts in Log10 CFU/mL,"Candida albicans; 2 × MIC, 6 h",<2.70 Log10 CFU/mL
same,Viable counts in Log10 CFU/mL,"Candida albicans; 2 × MIC, 24 h",<1 Log10 CFU/mL
same,Viable counts in Log10 CFU/mL,"Candida albicans; 2 × MIC, 0 h",5.75 Log10 CFU/mL
same,Viable counts in Log10 CFU/mL,"Candida albicans; 4 × MIC, 1 h",<3 Log10 CFU/mL
same,Viable counts in Log10 CFU/mL,"Candida albicans; 4 × MIC, 2 h",<3 Log10 CFU/mL
same,Viable counts in Log10 CFU/mL,"Candida albicans; 4 × MIC, 4 h",<2.70 Log10 CFU/mL
same,Viable counts in Log10 CFU/mL,"Candida albicans; 4 × MIC, 6 h",<2.70 Log10 CFU/mL
same,Viable counts in Log10 CFU/mL,"Candida albicans; 4 × MIC, 24 h",<1 Log10 CFU/mL
same,Viable counts in Log10 CFU/mL,"Candida albicans; 4 × MIC, 0 h",5.63 Log10 CFU/mL
same,Viable counts in Log10 CFU/mL,"Aspergillus niger; 1 × MIC, 1 h",5.34 Log10 CFU/mL
same,Viable counts in Log10 CFU/mL,"Aspergillus niger; 1 × MIC, 2 h",5.48 Log10 CFU/mL
same,Viable counts in Log10 CFU/mL,"Aspergillus niger; 1 × MIC, 4 h",5.08 Log10 CFU/mL
same,Viable counts in Log10 CFU/mL,"Aspergillus niger; 1 × MIC, 6 h",5.30 Log10 CFU/mL
same,Viable counts in Log10 CFU/mL,"Aspergillus niger; 1 × MIC, 24 h",3.78 Log10 CFU/mL
same,Viable counts in Log10 CFU/mL,"Aspergillus niger; 1 × MIC, 0 h",5.41 Log10 CFU/mL
same,Viable counts in Log10 CFU/mL,"Aspergillus niger; 2 × MIC, 1 h",5.11 Log10 CFU/mL
same,Viable counts in Log10 CFU/mL,"Aspergillus niger; 2 × MIC, 2 h",4.70 Log10 CFU/mL
same,Viable counts in Log10 CFU/mL,"Aspergillus niger; 2 × MIC, 4 h",4.48 Log10 CFU/mL
same,Viable counts in Log10 CFU/mL,"Aspergillus niger; 2 × MIC, 6 h",3.95 Log10 CFU/mL
same,Viable counts in Log10 CFU/mL,"Aspergillus niger; 2 × MIC, 24 h",<2 Log10 CFU/mL
same,Viable counts in Log10 CFU/mL,"Aspergillus niger; 2 × MIC, 0 h",5.36 Log10 CFU/mL
same,Viable counts in Log10 CFU/mL,"Aspergillus niger; 4 × MIC, 1 h",5.08 Log10 CFU/mL
same,Viable counts in Log10 CFU/mL,"Aspergillus niger; 4 × MIC, 2 h",4.48 Log10 CFU/mL
same,Viable counts in Log10 CFU/mL,"Aspergillus niger; 4 × MIC, 4 h",3.85 Log10 CFU/mL
same,Viable counts in Log10 CFU/mL,"Aspergillus niger; 4 × MIC, 6 h",4.04 Log10 CFU/mL
same,Viable counts in Log10 CFU/mL,"Aspergillus niger; 4 × MIC, 24 h",<2 Log10 CFU/mL
same,Viable counts in Log10 CFU/mL,"Aspergillus niger; 4 × MIC, 0 h",5.29 Log10 CFU/mL
same,"Viable counts, Aspergillus niger time kill study",[1]; 0.5 min,5.30 Log10 CFU/mL
same,"Viable counts, Aspergillus niger time kill study",[1]; 1 min,5.33 Log10 CFU/mL
same,"Viable counts, Aspergillus niger time kill study",[1]; 5 min,5.18 Log10 CFU/mL
same,"Viable counts, Aspergillus niger time kill study",[1]; time 0,5.27 Log10 CFU/mL
